From patent US20220142995A1, “DUAL ATM AND DNA-PK INHIBITORS FOR USE IN ANTI-TUMOR THERAPY” (XRAD Therapeutics, Inc., priority 2019, published 2022)

Test system: ATM and DNA-PK kinases
Assay: Immunoblot of radiation-induced phosphorylation of ATM, DNA-PKcs and KAP1 in MCF7 cells
Assay type: cell-based, human
Details: MCF7 cells, 20, 100, 500, 1000 nM, 30 min pre-treatment, 10 Gy, harvested 1 h later
Procedure: Cell Culture. The MCF-7 human breast carcinoma cell line and HCT116 p53 wild-type and HCT116 p53−/− cell lines were obtained from ATCC. […]
Immunoblotting. […] One hour after IR, cells were lysed in RIPA buffer ([…], pH 8.0, 150 mM NaCl, 0.1% SDS, 0.5% sodium deoxycholate, 1% IGEPAL® CA-630 (Sigma, 18896) for 20 min at 4° C. in the presence of protease and phosphatase inhibitor cocktails (Roche, #04693159001 & #04906837001). Cell lysates were centrifuged at 13,200 g for 10 min at 4° C. and supernatants were analyzed for protein content using BCA assay (Pierce™ BCA Protein Assay Kit, cat #23227, ThermoFisher Waltham, Mass. 02451) and equal amounts of protein/lane were used for subsequent immunoblot analyses. Proteins were denatured by adding NuPAGE LSD Sample Buffer [4×] […]

Question: `CC(C)NCCOc1ncc(-c2cc3c4c(cnc3cc2F)N(C)C(=O)C42CCC2)cc1NS(C)(=O)=O` [Compound 569, N-(5-(7′-Fluoro-3′-methyl-2′-oxo-2′,3′-dihydrospiro[cyclobutane-1,1′-pyrrolo[2,3-c]quinolin]-8′-yl)-2-(2-(isopropylamino)ethoxy)pyridin-3-yl)methanesulfonamide] was tested. Which “inhibition of radiation-induced phosphorylation of DNA-PKcs Ser2056, ATM Ser1981 and KAP1 ser824” value did it give?
Answer: potent dose-dependent inhibition
